The record followed here is US6476051B2, “Antipsychotic heterocycle compounds” (Bristol-Myers Squibb Company, priority 1999, dated 2002).

pKi: −log10 of the molar value. Read-outs that look alike come from different tables or passages of the source.

Experiment [1] concerns the target T1, human serotonin transporters (Homo sapiens, UniProt P31645).
T1 construct: expressed in transfected cells; host or cells: HEK-293 (HEK-hSERT cells), membrane homogenates
The experiment is described as follows: Serotonin transporter binding assay ([3H]-citalopram binding, HEK-hSERT cell membranes). An excerpt:
The compounds of Formula I bind potently to the human 5-HT transporter and inhibit the re-uptake of endogenous serotonin. Selective serotonin reuptake inhibitors (SSRIs) are effective for the treatment of mental depression and have been reported to be useful for treating chronic pain (see: R. W. Fuller, Pharmacologic Modification of Serotonergic Function: Drugs for the Study and Treatment of Psychiatric and Other Disorders,” J. Clin. Psychiatry, 47:4 (Suppl.) April 1986, pp. 4-8). Compounds of the present invention are also envisioned to be useful for treating psychosis, acute mania, mild anxiety states or depression with secondary psychotic episodes. The present compounds are also envisioned to be useful in treating obsessive-compulsive disorders, feeding disorders, anxiety disorders and panic disorders.
HEK-293 cells that stably express human serotonin transporters (HEK-hSERT cells) were grown at 37° C. in 5% CO2 as a monolayer in medium consisting of EMEM supplemented with 10% fetal bovine serum and G418 sulfate (500 μg/ml). To prepare membranes for radioligand binding experiments, cells were rinsed twice with phosphate-buffered saline (138 mM NaCl, 4.1 mM KCl, 5.1 mM Na2PO4, 1.5 mM […], 11.1 mM glucose, pH 7.4). Cells were transferred from plates to polypropylene tubes (16×100 mm), centrifuged at 1,200×g for 5 min and were frozen at −80° C. until assay. Following centrifugation, pellets were resuspended by homogenization in buffer consisting of 50 mM Tris (pH 7.7 at 25° C.), 120 mM NaCl and 5 mM KCl and then centrifuged at 32,000×g for 10 min. Following centrifugation, supernatants were discarded and pellets were resuspended in buffer consisting of 50 mM Tris (pH 7.4 at 25° C.), 150 mM NaCl and 5 mM KCl. Membrane homogenates (200 μl/plate) were incubated with 1 nM [^3H]-citalopram (specific activity=85 Ci/mmol) and increasing concentrations of test compounds for 1 hour at 25° C. in a total volume of 250 μl. The assay buffer consisted of 50 mM Tris (pH 7.4 at 25° C.), 120 mM NaCl and 5 mM KCl (pH 7.4 with conc. HCl). Plates were incubated for 1 hour at 25° C., then filtered through 0.5% PEI treated Whatman GF/B filters using a Brandel cell harvester. Filters were washed three times with 3 ml of ice-cold tris wash buffer. Non-specific binding was defined with 10 μM fluoxetine. Amount of radioligand bound in the presence and absence of competitor was analyzed by plotting (−)log drug concentration versus the amount of radioligand specifically bound. The midpoint of the displacement curve (IC50, nM), signifies the potency. Ki values were calculated using the method of Cheng and Prusoff (1973).
Substances which inhibit the re-uptake of serotonin are recognized to be effective antidepressants (Selective Serotonin Reuptake Inhibitors. Edited by J P Feighner and W F Boyer, Chichester, England. John Wiley & Sons, 1991, pp 89-108). Test data IC50 values lower than 250 nM are considered to reflect activity as an inhibitor of serotonin re-uptake.

For experiment [2], the target named is T2, recombinant human dopamine D2L receptors (Homo sapiens, UniProt P14416).
T2 construct: expressed in transfected cells; host or cells: HEK-293 (HEK-D2L cells), membrane homogenates
Description: Dopamine binding protocol ([3H]-spiperone binding, HEK-D2L cell membranes). The procedure: Like many clinically effective antipsychotic agents, the compounds of Formula I also are antagonists at the human D2L receptor as determined by [^3H]-spiperone binding studies using human D2L receptors stably expressed in HEK-293 cells.
HEK-293 cells that stably express recombinant human dopamine D2L receptors (HEK-D2L cells) were grown at 37° C. in 5% CO2 as a monolayer in medium consisting of EMEM supplemented with 10% fetal bovine serum and G418 sulfate (500 μg/ml). To prepare membranes for radioligand binding experiments, cells were rinsed twice with phosphate-buffered saline (138 mM NaCl, 4.1 mM KCl, 5.1 mM Na2PO4, 1.5 mM […] 11.1 mM glucose, pH 7.4), and incubated for 5-10 min. at 4° C. in hypotonic lysis buffer consisting of 10 mM Tris (pH 7.4) and 5 mM EDTA. Cells were transferred from plates to polypropylene tubes (16×100 mm), homogenized and centrifuged at 32,000×g for 20 min. Following centrifugation, pellets were resuspended by homogenization in buffer consisting of 50 mM Tris (pH 7.7 at 25° C.) and 1 mM EDTA. Homogenates were stored at −80° C. until needed. On the day of an experiment, homogenates were thawed then centrifuged at 32,000×g for 20 min. Following centrifugation, supernatants were discarded and pellets were resuspended in assay buffer consisting of 50 mM Tris (pH 7.4 at 25° C.), 1 mM EDTA and 6 mM MgCl2. Membrane homogenates (˜5 μg) were incubated with 150 pM [^3H]-spiperone (Amersham Life Science) and increasing concentrations of test compounds for 1.5 hours at 22° C. in a total volume of 400 μl. Reactions were stopped by addition of ice-cold assay buffer and filtration over glass fiber filters (Whatman GFB, pre-soaked in 0.05% polyethylenimine) using a microtitre format Brandel cell harvester. Filters were washed with 3 ml of ice-cold assay buffer. Non-specific binding was defined with 2 μM (+)butaclamol. Ki values were calculated using the method of Cheng and Prusoff (1973). Protein concentrations were determined by the method of Bradford (1976) with BSA as a standard.
Test data IC50 values lower than 250 nM are considered to reflect affinity for dopamine D2L receptors.

[3] abbreviates: [3H]-citalopram, HEK-hSERT membranes, read-out: inhibit the re-uptake of serotonin with Ki.
Setting [4] is: [3H]-spiperone, HEK-D2L membranes, read-out: dopamine D2L ligands with Ki.

What is called pKi is the negative decadic logarithm of the Ki, by convention in mol/L.

T1 sequence (P31645 whole entry): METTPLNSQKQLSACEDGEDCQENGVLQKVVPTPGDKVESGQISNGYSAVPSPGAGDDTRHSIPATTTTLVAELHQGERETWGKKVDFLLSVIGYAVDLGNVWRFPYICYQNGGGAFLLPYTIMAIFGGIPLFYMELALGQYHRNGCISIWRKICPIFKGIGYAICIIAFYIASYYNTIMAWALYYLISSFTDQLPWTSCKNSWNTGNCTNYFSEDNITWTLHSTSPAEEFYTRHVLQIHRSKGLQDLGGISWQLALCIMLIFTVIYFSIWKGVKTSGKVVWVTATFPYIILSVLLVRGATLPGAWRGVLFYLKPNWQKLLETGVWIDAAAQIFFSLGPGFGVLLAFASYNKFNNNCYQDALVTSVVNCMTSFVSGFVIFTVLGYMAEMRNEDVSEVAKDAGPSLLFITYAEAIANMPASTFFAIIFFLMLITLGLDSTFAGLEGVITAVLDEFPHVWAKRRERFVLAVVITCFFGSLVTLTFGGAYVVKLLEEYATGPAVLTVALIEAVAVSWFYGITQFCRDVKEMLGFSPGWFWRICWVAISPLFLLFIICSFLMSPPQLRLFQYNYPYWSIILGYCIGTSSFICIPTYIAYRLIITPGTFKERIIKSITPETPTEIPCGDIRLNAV
T2 sequence (P14416 whole entry): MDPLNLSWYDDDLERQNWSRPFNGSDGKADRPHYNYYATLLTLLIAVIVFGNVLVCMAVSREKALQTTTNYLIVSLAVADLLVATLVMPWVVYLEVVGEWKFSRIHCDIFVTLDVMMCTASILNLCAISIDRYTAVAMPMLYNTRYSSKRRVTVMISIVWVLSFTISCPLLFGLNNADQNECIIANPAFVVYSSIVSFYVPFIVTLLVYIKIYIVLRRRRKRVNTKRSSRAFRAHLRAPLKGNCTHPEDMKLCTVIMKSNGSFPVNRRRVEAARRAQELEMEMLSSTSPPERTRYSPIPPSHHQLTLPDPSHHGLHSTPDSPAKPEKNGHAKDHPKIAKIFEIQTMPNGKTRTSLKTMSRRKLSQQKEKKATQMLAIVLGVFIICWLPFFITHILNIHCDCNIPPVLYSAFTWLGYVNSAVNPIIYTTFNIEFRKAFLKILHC

On to `N#Cc1ccc2[nH]cc(C3CCN(CCCOc4ccccc4)CC3)c2c1` [Example 4, 3-[1-(3-phenoxypropyl)-4-piperidinyl]-5-cyanoindole], for which the negative-log Ki (pKi) in experiment [1] (setting [3]) and in experiment [2] (setting [4]) was > 7.00 each time.
As for `N#Cc1ccc2[nH]cc(C3CCN(CCCOc4ccccc4F)CC3)c2c1` [Example 5, 3-{1-[3-(2-fluorophenoxy)propyl]-4-piperidinyl}-5-cyanoindole], the negative logarithm of the Ki (pKi) in experiment [1] (setting [3]) and in experiment [2] (setting [4]) was > 7.00 each time.
On to `N#Cc1ccc2[nH]cc(C3CCN(CCCOc4ccc(F)cc4)CC3)c2c1` [Example 6, 3-{1-[3-(4-fluorophenoxy)propyl]-4-piperidinyl}-5-cyanoindole], for which the pKi in experiment [1] (setting [3]) and in experiment [2] (setting [4]) was > 7.00 each time.
Consider `COc1ccccc1OCCCN1CCC(c2c[nH]c3ccc(C#N)cc23)CC1` [Example 7, 3-{1-[3-(2-methoxyphenoxy)propyl]-4-piperidinyl}-5-cyanoindole], for which the negative logarithm of the Ki (pKi) in experiment [1] (setting [3]) and in experiment [2] (setting [4]) was > 7.00 in each case.
In the case of `COc1cccc(OCCCN2CCC(c3c[nH]c4ccc(C#N)cc34)CC2)c1` [Example 8, 3-{1-[3-(3-methoxyphenoxy)propyl]-4-piperidinyl}-5-cyanoindole], the pKi in experiment [1] (setting [3]) and in experiment [2] (setting [4]) was > 7.00 each time.
Consider `COc1ccc(OCCCN2CCC(c3c[nH]c4ccc(C#N)cc34)CC2)cc1` [Example 9, 3-{1-[3-(4-methoxyphenoxy)propyl]-4-piperidinyl}-5-cyanoindole], for which the pKi in experiment [1] (setting [3]) and in experiment [2] (setting [4]) was > 7.00 throughout.
On to `COc1ccc(OCCCN2CCC(c3c[nH]c4ccc(C#N)cc34)CC2)cc1OC` [Example 10, 3-{1-[3-(3,4-dimethoxyphenoxy)propyl]-4-piperidinyl}-5-cyanoindole], for which the negative logarithm of the Ki (pKi) in experiment [1] (setting [3]) and in experiment [2] (setting [4]) was > 7.00 in each case.
`Cc1nc2cc(OCCCN3CC=C(c4c[nH]c5cccc(F)c45)CC3)ccc2s1` [Example 11, 5-{3-[4-(4-fluoroindol-3-yl)-1,2,5,6-tetrahydropyrid-1-yl]propoxy}-2-methylbenzothiazole]: the pKi in experiment [1] and in experiment [2] was > 7.00 each time.
For `Cc1nc2cc(OCCCN3CC=C(c4c[nH]c5ccc(C#N)cc45)CC3)ccc2s1` [Example 12, 5-{3-[4-(5-cyanoindol-3-yl)-1,2,5,6-tetrahydropyrid-1-yl]propoxy}-2-methylbenzothiazole], the negative logarithm of the Ki (pKi) in experiment [1] and in experiment [2] was > 7.00 in each case.
As to `Cc1nc2cc(OCCCCN3CC=C(c4c[nH]c5cccc(F)c45)CC3)ccc2s1` [Example 13, 5-{4-[4-(4-fluoroindol-3-yl)1,2,5,6-tetrahydropyrid-1-yl]butoxy}-2-methylbenzothiazole], the pKi in experiment [1] and in experiment [2] was > 7.00 each time.
For the compound `Cc1nc2cc(OCCCCCN3CC=C(c4c[nH]c5cccc(F)c45)CC3)ccc2s1` [Example 14, 5-{5-[4-(4-fluoroindol-3-yl)-1,2,5,6-tetrahydropyrid-1-yl]pentoxy}-2-methylbenzothiazole], the negative logarithm of the Ki (pKi) in experiment [1] and in experiment [2] was > 7.00 each time.
Turning to `Cc1nc2cc(OCCCCN3CC=C(c4c[nH]c5ccc(F)cc45)CC3)ccc2s1` [Example 15, 5-{4-[4-(5-fluoroindol-3-yl)1,2,5,6-tetrahydropyrid-1-yl]butoxy}-2-methylbenzothiazole], the pKi in experiment [1] and in experiment [2] was > 7.00 in each case.
For the compound `Cc1nc2cc(OCCCCCN3CC=C(c4c[nH]c5ccc(F)cc45)CC3)ccc2s1` [Example 16, 5-{5-[4-(5-fluoroindol-3-yl)-1,2,5,6-tetrahydropyrid-1-yl]pentoxy}-2-methylbenzothiazole], the pKi in experiment [1] and in experiment [2] was > 7.00 each time.
As for `Cc1nc2cc(OCCCN3CC=C(c4c[nH]c5c(F)cccc45)CC3)ccc2s1` [Example 17, 5-{3-[4-(7-fluoroindol-3-yl)-1,2,5,6-tetrahydropyrid-1-yl]propoxy}-2-methylbenzothiazole], the pKi in experiment [1] and in experiment [2] was > 7.00 each time.
On to `Cc1nc2cc(OCCCCN3CC=C(c4c[nH]c5c(F)cccc45)CC3)ccc2s1` [Example 18, 5-{4-[4-(7-fluoroindol-3-yl)1,2,5,6-tetrahydropyrid-1-yl]butoxy}-2-methylbenzothiazole], for which the pKi in experiment [1] and in experiment [2] was > 7.00 in each case.
With `Cc1nc2cc(OCCCCCN3CC=C(c4c[nH]c5c(F)cccc45)CC3)ccc2s1` [Example 19, 5-{5-[4-(7-fluoroindol-3-yl)-1,2,5,6-tetrahydropyrid-1-yl]pentoxy}-2-methylbenzothiazole], the pKi in experiment [1] and in experiment [2] was > 7.00 each time.
Regarding `Cc1nc2cc(OCCCCN3CC=C(c4c[nH]c5ccc(Cl)cc45)CC3)ccc2s1` [Example 20, 5-{4-[4-(5-chloroindol-3-yl)1,2,5,6-tetrahydropyrid-1-yl]butoxy}-2-methylbenzothiazole], the pKi in experiment [1] and in experiment [2] was > 7.00 in each case.
`Cc1nc2cc(OCCCCCN3CC=C(c4c[nH]c5ccc(Cl)cc45)CC3)ccc2s1` [Example 21, 5-{5-[4-(5-chloroindol-3-yl)-1,2,5,6-tetrahydropyrid-1-yl]pentoxy}-2-methylbenzothiazole]: the pKi in experiment [1] and in experiment [2] was > 7.00 throughout.
`Cc1nc2cc(OCCCN3CC=C(c4c[nH]c5cc(Cl)ccc45)CC3)ccc2s1` [Example 22, 5-{3-[4-(6-chloroindol-3-yl)-1,2,5,6-tetrahydropyrid-1-yl]propoxy}-2-methylbenzothiazole]: the negative-log Ki (pKi) in experiment [1] and in experiment [2] was > 7.00 in each case.
In the case of `Cc1nc2cc(OCCCCN3CC=C(c4c[nH]c5cc(Cl)ccc45)CC3)ccc2s1` [Example 23, 5-{4-[4-(6-chloroindol-3-yl)1,2,5,6-tetrahydropyrid-1-yl]butoxy}-2-methylbenzothiazole], the pKi in experiment [1] and in experiment [2] was > 7.00 in each case.
For the compound `Cc1nc2cc(OCCCCCN3CC=C(c4c[nH]c5cc(Cl)ccc45)CC3)ccc2s1` [Example 24, 5-{5-[4-(6-chloroindol-3-yl)-1,2,5,6-tetrahydropyrid-1-yl]pentoxy}-2-methylbenzothiazole], the pKi in experiment [1] and in experiment [2] was > 7.00 each time.
As for `Cc1nc2cc(OCCCN3CC=C(c4c[nH]c5cc(Br)ccc45)CC3)ccc2s1` [Example 25, 5-{3-[4-(6-bromoindol-3-yl)-1,2,5,6-tetrahydropyrid-1-yl]propoxy}-2-methylbenzothiazole], the pKi in experiment [1] and in experiment [2] was > 7.00 throughout.
